# Results as given in patent publication US12344649B2, “Modulators of parathyroid hormone receptor (PTHR1)” (Flagship Pioneering Innovations VI, LLC, priority 2019, dated 2025).
# pEC50: −log10 of the molar value. “And” between values parts separate entries of the source, which are not always exact repeats. Equal values may be shown once. Where no end group is shown, it is not given here.
# Molecular target: T1, PTHR1 (Homo sapiens, UniProt Q03431)
# T1 sequence (Q03431 27-593): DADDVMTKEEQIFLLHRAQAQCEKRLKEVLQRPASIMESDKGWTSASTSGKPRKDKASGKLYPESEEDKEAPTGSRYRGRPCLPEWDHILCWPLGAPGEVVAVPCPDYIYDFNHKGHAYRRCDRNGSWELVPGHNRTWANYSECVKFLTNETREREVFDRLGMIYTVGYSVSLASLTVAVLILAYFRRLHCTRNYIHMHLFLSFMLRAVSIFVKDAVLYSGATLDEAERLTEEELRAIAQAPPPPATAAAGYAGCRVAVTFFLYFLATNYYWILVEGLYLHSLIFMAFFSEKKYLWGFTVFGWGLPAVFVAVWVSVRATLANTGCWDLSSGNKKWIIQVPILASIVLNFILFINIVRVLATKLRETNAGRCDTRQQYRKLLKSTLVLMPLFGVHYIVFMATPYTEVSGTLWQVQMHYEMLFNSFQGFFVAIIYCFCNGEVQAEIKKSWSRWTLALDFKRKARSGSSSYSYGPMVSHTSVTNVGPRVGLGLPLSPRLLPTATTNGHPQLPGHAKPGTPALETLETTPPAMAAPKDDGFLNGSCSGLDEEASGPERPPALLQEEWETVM
# Experiment: cAMP accumulation assay (HTRF) in CHO-K1/Ga15/PTHR1 cells
# Format: cell-based
# Design: host or cells: CHO-K1 (recombinant line CHO-K1/Ga15/PTHR1)
# Conditions: not given
# Experimental: Cell suspension (5 μL) was seeded in 384-well plates at a density of 3,000 cells/well. Cells were treated with test samples (5 μL) or agonist (PTH 1-34) for 30 minutes at room temperature. cAMP-d2 working solution (5 μL) and anti-cAMP-Cryptate working solution (5 μL) were added to cells and incubated for 60 minutes at room temperature. The signal of the assay plate was read with PheraStar (BMG LABTECH, NC), an HTRF compatible reader.
row,Sequence,pEC50
1,AVAEIQLMHQRAKWKLELELKEKIRKLLEDLL [Peptide R2-29],7.22

# Same assay, conditions: CHO-K1, cAMP assay; fitted dose-response maximum
row,Emax [%],Sequence
1,99.3,AVAEIQLMHQRAKWELEFELFREFLKLLVDFF [Peptide R1-97]
2,99.9,AVAEIQLMHQRAKWELEYELFEMFLKLLEEIF [Peptide R1-100]
3,98.8,AVAEIQLMHQRAKWKILEELLKILIDLLKQYI [Peptide R2-48]

# Same assay, conditions: FIG. 3; PTH 1-34 positive control
row,Sequence,cAMP accumulation activity compared to control peptide
1,AVAEIQLMHQRAKWELQEIGIAITLRLLARYI [Peptide R2-43],increased activity as compared to the control peptide
2,AVAEIQLMHQRAKWGLEIELLKLLLSLLKEYI [Peptide R2-45],increased activity as compared to the control peptide
3,AVAEIQLMHQRAKWKLELELKVKLLEILKDVY [Peptide R2-25],activity similar to the control peptide

# Other lines, results leading:
row,cAMP accumulation activity compared to control peptide,Sequence
1,activity similar to the control peptide,AVAEIQLMHQRAKWGVELQLKVDLRRILEDVY [Peptide R2-35]
2,activity similar to the control peptide,AVAEIQLMHQRAKWKLDLELAVSLRKILEDVY [Peptide R2-27]
3,activity similar to the control peptide,AVAEIQLMHQRAKWKLELELKAFLDQILKDVL [Peptide R2-36]

# Same assay, conditions: cAMP accumulation, fitted curve slope; replicate plates
row,Sequence,−log10Slope
1,AVAEIQLMHQRAKWKLELELKEKIRKLLEDLL [Peptide R2-29],−16.1973
2,AVAEIQLMHQRAKWKLELELKVKLLEILKDVY [Peptide R2-25],−10.1961

# More lines, now with the values ahead:
row,−log10Slope,Sequence
1,7.669,AVAEIQLMHQRAKWELQEIGIAITLRLLARYI [Peptide R2-43]
2,4.438,AVAEIQLMHQRAKWGLEIELLKLLLSLLKEYI [Peptide R2-45]
3,−9.142,AVAEIQLMHQRAKWGVELQLKVDLRRILEDVY [Peptide R2-35]
4,−4.343,AVAEIQLMHQRAKWKLDLELAVSLRKILEDVY [Peptide R2-27]
5,−1.696,AVAEIQLMHQRAKWKLELELKAFLDQILKDVL [Peptide R2-36]

# Same assay, conditions: cAMP accumulation; replicate plates; read-out: −log10EC50 (converted)
row,EC50 [nM],Sequence
1,0.0348,AVAEIQLMHQRAKWELQEIGIAITLRLLARYI [Peptide R2-43]
2,0.00841,AVAEIQLMHQRAKWGLEIELLKLLLSLLKEYI [Peptide R2-45]
3,9.84,AVAEIQLMHQRAKWGVELQLKVDLRRILEDVY [Peptide R2-35]
4,12.2,AVAEIQLMHQRAKWKLDLELAVSLRKILEDVY [Peptide R2-27]
5,4.76,AVAEIQLMHQRAKWKLELELKAFLDQILKDVL [Peptide R2-36]
6,12.9,AVAEIQLMHQRAKWKLELELKVKLLEILKDVY [Peptide R2-25]

# Same assay, conditions: cAMP assay; fitted dose-response curve; read-out: −log10EC50 (converted)
row,EC50 [nM],Sequence
1,58.7,AVAEIQLMHQRAKWELEFELFREFLKLLVDFF [Peptide R1-97]
2,52.8,AVAEIQLMHQRAKWELEYELFEMFLKLLEEIF [Peptide R1-100]
3,64,AVAEIQLMHQRAKWKILEELLKILIDLLKQYI [Peptide R2-48]

# Same assay, conditions: cAMP assay; fitted dose-response slope
row,−log10Slope,Sequence
1,−14.176,AVAEIQLMHQRAKWELEFELFREFLKLLVDFF [Peptide R1-97]
2,−12.0796,AVAEIQLMHQRAKWELEYELFEMFLKLLEEIF [Peptide R1-100]
3,−14.2687,AVAEIQLMHQRAKWKILEELLKILIDLLKQYI [Peptide R2-48]

# Same assay, conditions: relative to PTH [1-34]; CHO-K1/Ga15/PTHR1 cells
row,cAMP,Sequence
1,++,AVAEIQLMHQRAKWELQEIGIAITLRLLARYI [Peptide R2-43]
2,++,AVAEIQLMHQRAKWGLEIELLKLLLSLLKEYI [Peptide R2-45]
3,+,AVAEIQLMHQRAKWGVELQLKVDLRRILEDVY [Peptide R2-35]
4,+,AVAEIQLMHQRAKWKLDLELAVSLRKILEDVY [Peptide R2-27]
5,+,AVAEIQLMHQRAKWKLELELKAFLDQILKDVL [Peptide R2-36]
6,+,AVAEIQLMHQRAKWKLELELKVKLLEILKDVY [Peptide R2-25]

# Molecular target: T1, PTHR1
# Experiment: β-arrestin2 recruitment BRET assay in transfected HEK293T cells
# Format: cell-based
# Design: Flag (N); Life Technologies Corporation, CA (arrestin cDNA); host or cells: HEK293T (CRL-3216, ATCC)
# Conditions: FIG. 2; PTH 1-34 positive control
# Experimental: (§1) 18-24 hours post transfection, the Luciferase substrate Coelenterazine (NanoLight Technologies, AZ) was added to cells, a baseline BRET measurement was taken after 5 minutes incubation, and then serial dilutions of peptides, diluted in PBS (with 0.5 mM MgCl2+0.1% BSA FAF), were added to cells, and BRET signal was measured every 2 minutes for 30 minutes on Hybrid Multi-Mode Reader (Synergy Neo2, BioTek, VT). Seventy-five peptides were tested in the β-arrestin recruitment assay.
row,Sequence,β-arrestin2 assay activity compared to control peptide
1,AVAEIQLMHQRAKWKILEELLKILIDLLKQYI [Peptide R2-48],increased activity as compared to control
2,AVAEIQLMHQRAKWKLELELKAFLDQILKDVL [Peptide R2-36],increased activity as compared to control
3,AVAEIQLMHQRAKWKLELELKEKIRKLLEDLL [Peptide R2-29],increased activity as compared to control
4,AVAEIQLMHQRAKWKLELELKVKLLEILKDVY [Peptide R2-25],increased activity as compared to control

# Same assay, conditions: relative to PTH [1-34]; HEK293T cells, BRET
row,Sequence,β2-arrestin
1,AVAEIQLMHQRAKWKLELELKEKIRKLLEDLL [Peptide R2-29],++
2,AVAEIQLMHQRAKWKLELELKVKLLEILKDVY [Peptide R2-25],++

# More lines, now with the values ahead:
row,β2-arrestin,Sequence
1,++,AVAEIQLMHQRAKWKILEELLKILIDLLKQYI [Peptide R2-48]
2,++,AVAEIQLMHQRAKWKLELELKAFLDQILKDVL [Peptide R2-36]

# Same assay, conditions: β-arrestin2 recruitment, fitted curve slope; replicate plates
row,Sequence,−log10Slope
1,AVAEIQLMHQRAKWELEFELFREFLKLLVDFF [Peptide R1-97],−4.859 and −4.946 and −1.289 and −4.995
2,AVAEIQLMHQRAKWELEYELFEMFLKLLEEIF [Peptide R1-100],−5.84 and −1.653 and −5.805
3,AVAEIQLMHQRAKWKLELELKEKIRKLLEDLL [Peptide R2-29],−2.874 and −3.055
4,AVAEIQLMHQRAKWKLELELKVKLLEILKDVY [Peptide R2-25],−3.2515 and −2.752

# The remaining lines, values ahead:
row,−log10Slope,Sequence
1,−6.422 and −8.23 and −2.379,AVAEIQLMHQRAKWELQEIGIAITLRLLARYI [Peptide R2-43]
2,−2.787 and −1.761 and −3.574,AVAEIQLMHQRAKWGLEIELLKLLLSLLKEYI [Peptide R2-45]
3,−3.628 and −0.891 and −4.077,AVAEIQLMHQRAKWGVELQLKVDLRRILEDVY [Peptide R2-35]
4,−8.231 and −1.939,AVAEIQLMHQRAKWKILEELLKILIDLLKQYI [Peptide R2-48]
5,−1.829 and −3.204,AVAEIQLMHQRAKWKLDLELAVSLRKILEDVY [Peptide R2-27]
6,−4.1664 and −3.85 and −3.8162,AVAEIQLMHQRAKWKLELELKAFLDQILKDVL [Peptide R2-36]

# Same assay, conditions: β-arrestin2 recruitment; replicate plates; read-out: −log10EC50 (converted)
row,EC50,Sequence
1,255 nM and 1750 nM and 337 nM,AVAEIQLMHQRAKWGLEIELLKLLLSLLKEYI [Peptide R2-45]
2,0.0212 nM,AVAEIQLMHQRAKWKILEELLKILIDLLKQYI [Peptide R2-48]
3,22.6 nM and 8.32 nM,AVAEIQLMHQRAKWKLDLELAVSLRKILEDVY [Peptide R2-27]
4,2.5 nM and 1.98 nM and 5.39 nM,AVAEIQLMHQRAKWKLELELKAFLDQILKDVL [Peptide R2-36]
5,4.3 nM and 1.73 nM,AVAEIQLMHQRAKWKLELELKVKLLEILKDVY [Peptide R2-25]

# Same assay, conditions: −log10EC50, β-arrestin2 recruitment; replicate plates
row,Sequence,pEC50
1,AVAEIQLMHQRAKWKLELELKEKIRKLLEDLL [Peptide R2-29],8.39 and 8.46

# Molecular target: T1, PTHR1
# Experiment: β-arrestin1 recruitment BRET assay in transfected HEK293T cells
# Format: cell-based
# Design: Flag (N); Life Technologies Corporation, CA (arrestin cDNA); host or cells: HEK293T (CRL-3216, ATCC)
# Conditions: relative to PTH [1-34]; HEK293T cells, BRET
# Experimental: as §1
row,Sequence,β1-arrestin
1,AVAEIQLMHQRAKWKLELELKAFLDQILKDVL [Peptide R2-36],+
2,AVAEIQLMHQRAKWKLELELKEKIRKLLEDLL [Peptide R2-29],+

# Same assay, conditions: β-arrestin1 recruitment, fitted curve slope; replicate plates
row,Sequence,−log10Slope
1,AVAEIQLMHQRAKWELEFELFREFLKLLVDFF [Peptide R1-97],−0.04462 and −1.336 and −0.04454 and −4.221
2,AVAEIQLMHQRAKWELEYELFEMFLKLLEEIF [Peptide R1-100],−6.023 and −5.129 and −4.482
3,AVAEIQLMHQRAKWKLELELKEKIRKLLEDLL [Peptide R2-29],−5.782 and −7.833
4,AVAEIQLMHQRAKWKLELELKVKLLEILKDVY [Peptide R2-25],−3.965 and −2.819

# The next lines start with the values.
row,−log10Slope,Sequence
1,−3.786 and −3.741 and −1.605,AVAEIQLMHQRAKWELQEIGIAITLRLLARYI [Peptide R2-43]
2,−4.328 and −4.739 and −2.6191,AVAEIQLMHQRAKWGLEIELLKLLLSLLKEYI [Peptide R2-45]
3,−0.6156 and −2.473 and −2.432,AVAEIQLMHQRAKWGVELQLKVDLRRILEDVY [Peptide R2-35]
4,−3.1505 and −0.7628,AVAEIQLMHQRAKWKILEELLKILIDLLKQYI [Peptide R2-48]
5,−7.323 and −7.877,AVAEIQLMHQRAKWKLDLELAVSLRKILEDVY [Peptide R2-27]
6,−5.884 and −3.429 and −1.931,AVAEIQLMHQRAKWKLELELKAFLDQILKDVL [Peptide R2-36]

# Same assay, conditions: β-arrestin1 recruitment; replicate plates; read-out: −log10EC50 (converted)
row,Sequence,EC50
1,AVAEIQLMHQRAKWELEYELFEMFLKLLEEIF [Peptide R1-100],607 nM and 605 nM and 569 nM
2,AVAEIQLMHQRAKWKLELELKVKLLEILKDVY [Peptide R2-25],2.59 nM and 5.42 nM

# Second part, the sequence after the results:
row,EC50,Sequence
1,483 nM and 470 nM and 542 nM,AVAEIQLMHQRAKWGLEIELLKLLLSLLKEYI [Peptide R2-45]
2,1890 nM,AVAEIQLMHQRAKWKILEELLKILIDLLKQYI [Peptide R2-48]
3,12 nM and 9.45 nM,AVAEIQLMHQRAKWKLDLELAVSLRKILEDVY [Peptide R2-27]
4,1.47 nM and 4.7 nM and 2.91 nM,AVAEIQLMHQRAKWKLELELKAFLDQILKDVL [Peptide R2-36]

# Same assay, conditions: −log10EC50, β-arrestin1 recruitment; replicate plates
row,Sequence,pEC50
1,AVAEIQLMHQRAKWKLELELKEKIRKLLEDLL [Peptide R2-29],8.15 and 8.77
